Experimental data published in US4200626A, “Haloplatinate dental composition for preventing and inhibiting dental caries” (Toyo Seiyaku Kasei Co., Ltd., priority 1978, dated 1980).

Key:
[1] = Inhibition of acid decalcification of the hard tissue in dentin (human dentin powder); details: for Inhibition rate of decalcification: solution containing 2% platinum (or saturated) or 2% NaF, pH 5.4
Procedure: The ability to inhibit decalcification of the hard tissue was also estimated according to the method described by Nishino [Nishino, Osaka University Shigaku Zasshi, Vol. 1, page 1 (1969)]. That is, firstly, a certain amount of human dentin powder was treated with a composition to be tested for certain minutes and then unbonded excess components were removed by washing with water to obtain a sample powder. Then, the sample powder was treated with an acid solution (decalcification) and the amount of calcium in the solution, which was dissolved in the solution by action of the acid, was determined (sample calcium content). Similarly, untreated dentin powder was added to an acid solution and the amount of calcium in the acid solution was determined (control calcium content). From these values, the inhibition rate of decalcification was calculated as follows: [formula]
As a reference, a similar test was done by using an aqueous solution containing 2% of sodium fluoride (pH 5.4).

mice = assay: LD50 in mice (p.o.); format: in vivo
Source text: Further, the dental composition of the present invention is useful from a viewpont of toxicity since these platinum compounds have lower toxicity than that of NaF.

[2] = tested on: protease (collagenase or trypsin); assay: Inhibition of protease digestion of the soft tissue in dentin (clear zone on opaque agar plates with decalcified dentin powder); format: biochemical; details: for Clear zone: aqueous solution pH 5.4
Procedure: The ability to inhibit digestion of the soft tissue in dentin was estimated according to the method described by Yanagida et al [Yanagida et al, Shonishikagaku Zasshi, Vol. 9, page 39 (1971)]. That is, firstly, a certain amount of human decalcified dentin powder was treated with a composition to be tested for certain minutes and then unbonded excess components were removed by dialysis to obtain a sample powder. Then, opaque agar plates were prepared by adding the sample powder, and a protease (collagenase or trypsin) was added to the plates. The inhibiting ability was estimated by observing whether a clear zone was formed on the plate or not. The clear zone is formed by dissolution of the powder with the enzyme, and the formation thereof means digestion of the soft tissue in dentin.
Each composition used in the test is an aqueous solution at pH 5.4.

Question: Which results are given for `[Cl][Pt-2]([Cl])([Cl])([Cl])([Cl])[Cl].[Na+].[Na+]` [Na2 PtCl6, sodium hexachloroplatinate]?
Answer: Inhibition rate of decalcification ([1]; decalcification time 0.5 hour): 43.42%; Inhibition rate of decalcification ([1]; decalcification time 1.0 hour): 45.23%; Inhibition rate of decalcification ([1]; decalcification time 1.5 hour): 45.15%; Inhibition rate of decalcification ([1]; decalcification time 2.0 hour): 45.36%; Inhibition rate of decalcification ([1]; decalcification time 3.0 hour): 47.57%; Inhibition rate of decalcification ([1]; decalcification time 5.0 hour): 47.77%; Inhibition rate of decalcification ([1]; decalcification time 24.0 hour): 48.00%; Inhibition rate of decalcification ([1]; decalcification time 48.0 hour): 48.20%; inhibiting effect on decalcification of the hard tissue in dentin ([1]; result in words, from Table 2): superior inhibiting effect to that containing NaF at every decalcification time and the effect thereof is not decreased even though after 48 hours; LD50 (p.o.) (mice): 130 mg per kg of body weight; Clear zone ([2]; platinum content 0.001%): Present; Clear zone ([2]; platinum content 0.01%): None; Clear zone ([2]; platinum content 0.1%): None

Question: Which “Inhibition rate of decalcification” value ([1]; decalcification time 0.5 hour) does the source give for `[F-].[Na+]` [NaF, sodium fluoride, reference compound] here?
Answer: The value was 40.03%.

Question: What about the “Inhibition rate of decalcification” value ([1]; decalcification time 1.0 hour) of the same compound?
Answer: The value was 43.29%.

Question: What about the “Inhibition rate of decalcification” value ([1]; decalcification time 1.5 hour) of the same compound?
Answer: Its value is 44.12%.

Question: What about the “Inhibition rate of decalcification” value ([1]; decalcification time 2.0 hour) of the same compound?
Answer: Its value is 44.02%.

Question: And the “Inhibition rate of decalcification” value ([1]; decalcification time 3.0 hour)?
Answer: The value was 44.33%.

Question: What about the “Inhibition rate of decalcification” value ([1]; decalcification time 5.0 hour) of the same compound?
Answer: The value was 44.79%.

Question: And the “Inhibition rate of decalcification” value ([1]; decalcification time 24.0 hour)?
Answer: The value was 44.93%.

Question: And the “Inhibition rate of decalcification” value ([1]; decalcification time 48.0 hour)?
Answer: The value was 45.45%.

Question: And the “LD50 (p.o.)” value (mice)?
Answer: The value was “about 90 mg per kg of body weight”.

Question: And the “inhibition of the digestion” value ([2]; similar test using sodium fluoride, result in words)?
Answer: The value was “no inhibition of the digestion was observed”.

Question: What does the source list for `[Cl][Pt-2]([Cl])([Cl])[Cl].[K+].[K+]` [K2 PtCl4, potassium tetrachloroplatinate]?
Answer: Inhibition rate of decalcification ([1]; decalcification time 0.5 hour): 27.28%; Inhibition rate of decalcification ([1]; decalcification time 1.0 hour): 28.11%; Inhibition rate of decalcification ([1]; decalcification time 1.5 hour): 30.86%; Inhibition rate of decalcification ([1]; decalcification time 2.0 hour): 29.65%; Inhibition rate of decalcification ([1]; decalcification time 3.0 hour): 30.22%; Inhibition rate of decalcification ([1]; decalcification time 5.0 hour): 31.54%; Inhibition rate of decalcification ([1]; decalcification time 24.0 hour): 31.69%; Inhibition rate of decalcification ([1]; decalcification time 48.0 hour): 32.27%; LD50 (p.o.) (mice): 97 mg per kg of body weight; Clear zone ([2]; platinum content 0.001%): Present; Clear zone ([2]; platinum content 0.01%): None; Clear zone ([2]; platinum content 0.1%): None

Question: Which Clear zone ([2]; platinum content 0.001%) does the source give for `[Cl][Pt-2]([Cl])([Cl])([Cl])([Cl])[Cl].[NH4+].[NH4+]` [(NH4)2 PtCl6, ammonium hexachloroplatinate] here?
Answer: Its Clear zone is “Present”.

Question: And the Clear zone ([2]; platinum content 0.01%)?
Answer: Its Clear zone is “None”.

Question: What about the Clear zone ([2]; platinum content 0.1%) of the same compound?
Answer: The Clear zone was “None”.

Question: Which results are given for `[I-].[I-].[I-].[I-].[I-].[I-].[K+].[K+].[Pt+4]` [K2 PtI6, potassium hexaiodoplatinate]?
Answer: Clear zone ([2]; platinum content 0.001%): Present; Clear zone ([2]; platinum content 0.01%): None; Clear zone ([2]; platinum content 0.1%): None
